This data set is described as follows: EC17 dose finding and CRS assessment in tumor-free mice. In kind it is in vivo, NSG mice. The source says:
Panel A: Schematic diagram to show dose scheduling of CAR-T cells (˜10 million “clinical facsimile”) plus EC17 dosed 3 different ways in NSG mice without or with pre-established MDA-MB-231 xenografts. Tumor-free mice received EC17 SIW 500 nmol/kg (2 doses on days 2 and 10). Tumor-bearing mice received EC17 as follows: EC17 SIW 500 nmol/kg (5 doses on days 2, 10, 17, 24, and 31), EC17 M/Th/M_Escalation-1 (repeats of 5/50/500 nmol/kg on Monday/Thursday/Monday followed by 1-week break, i,e. on days 2, 6, 10, 17, 20, 24, and 31), or EC17 M/Th/M_Escalation-2 (repeats of 5/100/1000 nmol/kg on Monday/Thursday/Monday followed by 1-week break, i.e. days 2, 6, 10, 17, 20, 24, and 31). Panel B: Systemic levels of human IFNγ on a log 2 scale detected in mouse plasma on days 11 and 12 after CAR-T cell injection in tumor-bearing versus tumor-free mice (i.e., ˜20 and 42 hours after the previous EC17 dose in all treated cohorts). Panel C: Circulating CAR-T cells in mouse blood identified as human CD3ε+ EGFRt+ events by flow cytometry and enumerated per 100 μL of whole blood. Panel D: Measurements of change in body weight and tumor volume in tumor-bearing mice that received CAR-T cells only or CAR-T cells plus EC17 dosed 3 different ways (dashed lines indicated each EC17 dose). n=5 mice per group. All data represent mean±s.e.m. * p<0.05 by one-way ANOVA test. […]

Data on 1 molecule can be found in patent US12240870B2, “Sequencing method for CAR T cell therapy” (Purdue Research Foundation, priority 2018, dated 2025).

In the case of `Nc1nc2ncc(CNc3ccc(C(=O)N[C@@H](CCC(=O)NCCNC(=S)Nc4ccc(-c5c6ccc(=O)cc-6oc6cc(O)ccc56)c(C(=O)O)c4)C(=O)O)cc3)nc2c(=O)[nH]1` [EC17, FA-(γ)-ethylenediamine-FITC], the body weight loss result (tumor-free mice, two weekly doses of EC17 at 500 nmol/kg) was “no CRS symptoms (grade 0 out of a 0-5 scale) or body weight loss was observed”. Besides, the “human IFNγ in mouse plasma” value (tumor-free, CAR-T cells plus EC17, days 11 and 12) is on record as “low levels of IFNγ were detected”.
